One experiment relates to ERs (ERa and ERb). In words: Fluorescence polarization competitive binding with E2-FITC in cytosolic fractions from MCF-7 cells. Also on record: species or system human. The protocol: ER binding was measured using cytosolic fractions prepared from MCF-7 cells by fluorescence polarization. MCF-7 (10^6 cells) were detached in EDTA, cell homogenates were prepared using a Dounce homogenizer and subcellular fractions were isolated by differential centrifugation as previously described (Filardo et al, 2002). The protein concentration of each fraction was determined by bichinchoninic acid (BCA) assay (Pierce ™ BCA protein assay kit, Thermo Fisher). For saturation binding assay of the probe, different concentrations of cytosolic fraction were diluted in assay buffer (10 mM Tris-HCl, pH 7.4; 50 mM KCl, 10% glycerol, 0.1 mM dithiothreitol (DTT), 1 ug/mL BGG, 10 nM protease inhibitor cocktail (Roche) to a final volume of 200 uL containing 10 nM Ez-FITC. The mixture was incubated at ambient temperature for 1 hour and interaction of the probe with cytosolic protein was determined by fluorescence polarization (FP). For competitive binding assay, an aliquot of cytosolic fraction and E2-FITC (10 nM final concentration) was mixed and incubated at 4° C. for 1 hour. Then different concentrations of drugs and controls were added to the mixture. The mixture was incubated for an additional hour and then subjected to FP. All samples were measured in triplicate. Negative controls (only cytosolic fraction or only E2-FITC) and positive control (E2-FITC and cytosolic fraction at 100% binding without treatment) were included. Relative binding affinities were expressed as the percentage of FP recorded from treated wells compared to the positive control. FP values in millipolarization units (mP) were measured at ex/em wavelength of 485 nm/530 nm respectively using the Spectra Max plus 384 Microplate Spectrophotometer (Molecular Devices, Sunnyvale, CA) in 96-well, black, flat-bottom microplates (Greiner Bio-One North America, Inc., Monroe, NC). Kd values of the probe were determined by nonlinear regression fitting of the saturation curves, while IC50 values of treatment were determined by nonlinear regression fitting of the competition curves.
In contrast to GPER, ERa and ERb are intracellular receptors that are concentrated in the cytoplasm and in the nucleus. […] A saturation analysis was performed using 10 nM E2-FITC and increasing concentrations of cytosolic protein (FIG. 25D).
On the technique in general: Fluorescence polarisation rises when a labelled molecule tumbles more slowly, as on binding a larger partner.

The target of a further experiment is HA-CXCR4 (Homo sapiens, UniProt P61073). In words: Immunofluorescence with HA antibody, stably transfected HEK293 cells. The format is cell-based. The note with it: 100 µM, 1 hour.
The next experiment has as its target HiBiT-GPER (Homo sapiens, UniProt Q99527). Kind of experiment: Nano-BiT binary luminescence complementation, transfected HEK-293 cells, total receptor. The format is cell-based. The procedure: FIG. 26. […] HEK-293 cells (ERα^-, GPER^-) were transiently transfected with 50 ng HiBiT-GPER or HiBiT-ER plus pcDNA3.1(+) zeo carrier plasmid. […] (C) Histogram depicting total HiBiT-GPER and HiBiT-ER following a 1-hour treatment at […] drug or control. […] Results shown represent the mean ± S.E. of three independent experiments.
(§1) FIG. 28. […] Total receptor was then measured by binary luminescence complementation in detergent-permeabilized cells. […] Total receptor was then quantified by binary luminescence complementation. Representative luminescence data and mean values and SDs derived from three independent experiments are shown.
(§2) Transient transfections and binary Nano-Bit ™ luminescence assays. Total HiBiT-tagged GPER or ER estrogen receptors were detected in detergent-permeabilized cells by binary luminescence complementation with recombinant LgBit and substrate using the Nano-Glo HiBiT Extracellular Detection system kit (Promega Corporation, Madison, Wl). In brief, HEK293 cells (0.75 × 10^6) were seeded in 35 mm tissue culture dishes and 24 hours later were transiently transfected with 50 ng of HiBiT-GPER or HiBiT-ERa and 950 ng of pcDNA3.1(+) zeo carrier plasmid using Lipofectamine 2000 (Invitrogen, Carlsbad, CA). The next day transfected cells were harvested by trypsinization and seeded at a density of 10^4 cells/well in 96-well poly-L-lysine-coated Greiner white-bottomed microplates. On the following day, cell culture media was aspirated and replaced with 100 µL of serum-free PRF-DF12 containing E2-PROTAC, partial-PROTAC, or vehicle at various concentrations and for indicated time intervals at 37° C. […] Following treatment, total HiBiT-tagged receptor was measured in cells which were permeabilized in 0.05% Triton X-100 using HiBiT complementation reagent consisting of LgBiT protein and Nano-Gio® HiBiT substrate. Luminescence was measured using the Infinite 200 PRO multimode microplate reader from Tecan (Raleigh, NC) and reported as Relative Luminescent Units (RLU). All samples were measured in triplicate and expressed as the mean value plus or minus standard deviation.

The target of the next experiment is ERβ (Homo sapiens, UniProt Q92731). In words: Immunostaining of endogenous receptors in MCF-7 cells. The note with it: MCF-7, 1 hour.
Another experiment has as its target T1, HA-GPER (Homo sapiens, UniProt Q99527).
T1 construct: expressed in transfected cells
In words: Immunofluorescence with HA antibody, stably transfected HEK293 cells. The format is cell-based. The note with it: 100 µM, 1 hour.

The target of the next experiment is T2, HiBiT-ERα (Homo sapiens, UniProt P03372).
T2 sequence (P03372 1-595): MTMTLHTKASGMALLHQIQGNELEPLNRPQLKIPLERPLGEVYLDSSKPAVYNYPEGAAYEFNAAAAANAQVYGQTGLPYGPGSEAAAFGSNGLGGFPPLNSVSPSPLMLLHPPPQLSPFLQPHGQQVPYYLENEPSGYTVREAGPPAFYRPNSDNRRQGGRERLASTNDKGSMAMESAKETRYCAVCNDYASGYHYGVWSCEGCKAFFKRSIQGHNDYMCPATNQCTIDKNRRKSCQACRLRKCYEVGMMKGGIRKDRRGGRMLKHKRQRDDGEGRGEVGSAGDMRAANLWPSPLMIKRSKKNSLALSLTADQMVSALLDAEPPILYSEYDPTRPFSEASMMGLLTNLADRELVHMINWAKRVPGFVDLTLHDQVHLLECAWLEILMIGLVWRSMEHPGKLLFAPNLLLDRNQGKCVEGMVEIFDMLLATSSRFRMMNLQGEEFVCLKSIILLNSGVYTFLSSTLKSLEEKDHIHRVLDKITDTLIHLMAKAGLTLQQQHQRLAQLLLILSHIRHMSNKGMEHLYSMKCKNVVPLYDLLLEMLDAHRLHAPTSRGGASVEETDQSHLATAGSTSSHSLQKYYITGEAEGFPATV
In words: Nano-BiT binary luminescence complementation, transfected HEK-293 cells, total receptor. The format is cell-based. The protocol:
FIG. 26. […] HEK-293 cells (ERα^-, GPER^-) were transiently transfected with 50 ng HiBiT-GPER or HiBiT-ER plus pcDNA3.1(+) zeo carrier plasmid. […] Results shown represent the mean ± S.E. of three independent experiments.
as §1, §2

The mark [1] stands for this setting: increasing doses, 1 hour, partial PROTAC 100 µM.

Sequence of HiBiT-GPER (Q99527 whole entry): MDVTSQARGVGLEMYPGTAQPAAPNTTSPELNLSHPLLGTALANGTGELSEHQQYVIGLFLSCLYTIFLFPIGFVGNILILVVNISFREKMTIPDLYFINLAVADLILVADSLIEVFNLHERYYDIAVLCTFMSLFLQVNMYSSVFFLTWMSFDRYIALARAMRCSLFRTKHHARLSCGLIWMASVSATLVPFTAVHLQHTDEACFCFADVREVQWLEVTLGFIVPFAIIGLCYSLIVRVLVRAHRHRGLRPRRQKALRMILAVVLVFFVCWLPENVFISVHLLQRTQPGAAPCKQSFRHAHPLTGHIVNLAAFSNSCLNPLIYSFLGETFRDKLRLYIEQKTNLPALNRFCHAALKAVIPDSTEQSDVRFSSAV
T1 sequence (Q99527 whole entry): as above
Sequence of ERβ (Q92731 whole entry): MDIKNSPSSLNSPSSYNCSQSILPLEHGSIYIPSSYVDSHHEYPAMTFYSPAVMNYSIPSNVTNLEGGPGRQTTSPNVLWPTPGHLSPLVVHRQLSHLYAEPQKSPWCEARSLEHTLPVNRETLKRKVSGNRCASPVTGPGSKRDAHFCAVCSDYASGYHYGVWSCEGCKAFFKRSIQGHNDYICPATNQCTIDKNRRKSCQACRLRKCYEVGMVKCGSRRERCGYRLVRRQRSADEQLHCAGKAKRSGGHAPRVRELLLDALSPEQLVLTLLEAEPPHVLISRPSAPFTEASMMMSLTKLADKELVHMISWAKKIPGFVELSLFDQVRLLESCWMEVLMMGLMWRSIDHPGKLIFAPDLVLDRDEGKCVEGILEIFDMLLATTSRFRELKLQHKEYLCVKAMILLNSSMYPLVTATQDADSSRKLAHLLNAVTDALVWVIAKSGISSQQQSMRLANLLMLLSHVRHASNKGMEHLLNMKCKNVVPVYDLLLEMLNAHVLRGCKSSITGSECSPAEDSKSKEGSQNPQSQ
Sequence of HA-CXCR4 (P61073 whole entry): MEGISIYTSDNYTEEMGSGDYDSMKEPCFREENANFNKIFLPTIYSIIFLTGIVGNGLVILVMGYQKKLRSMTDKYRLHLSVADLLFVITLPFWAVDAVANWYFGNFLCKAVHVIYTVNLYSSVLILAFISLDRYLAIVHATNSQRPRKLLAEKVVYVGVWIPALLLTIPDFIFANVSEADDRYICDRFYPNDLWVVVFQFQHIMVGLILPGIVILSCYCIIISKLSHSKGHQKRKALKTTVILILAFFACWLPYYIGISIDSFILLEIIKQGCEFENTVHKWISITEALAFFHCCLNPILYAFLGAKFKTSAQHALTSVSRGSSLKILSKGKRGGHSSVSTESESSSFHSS

As for `Cc1ncsc1-c1ccc(CNC(=O)C2CC(O)CN2C(=O)C(NC(=O)COCCOCCOCCOCC(=O)OC2CCC3C4CCc5cc(O)ccc5C4CCC23C)C(C)(C)C)cc1` (centres unmarked) [UI-EP001], the “RBA%, ERs” value with ERs (ERa and ERb) (IC50 of 17β-E2 divided by IC50 of test compound) was found to be 32%. In addition, in the experiment with ERs (ERa and ERb) (MCF-7 cytosolic fraction, 10 nM E2-FITC, mean ± SD of triplicates), the IC50 (commonly the concentration needed to halve the response being measured) came to 17.2 ± 8.2 nM. Further, the dissociation constant (Kd) – broadly, the constant that tells how readily two partners part at equilibrium – with ERs (ERa and ERb) (MCF-7 cytosolic fractions, E2-FITC, read-out: binding dissociation constant (Kd), ER) came to 17.2 nM. For the same compound, the “off-target degradation of HA-CXCR4” value on HA-CXCR4 is given as “without detectable off-target degradation”. Moreover, the “reduction in expression level of recombinant GPER” value at HiBiT-GPER (100 µM, as early as 1 h) is on record as 50%. Moreover, the DC50 on HiBiT-GPER (1 hour treatment, detergent-permeabilized cells, read-out: DC50 (concentration required for 50% protein degradation), GPER) stood at 100000 nM. Also, at HiBiT-GPER (setting [1]), the “change of HiBiT-GPER” value is reported as “dose-dependent decrease”. For the same compound, the “nuclear ERβ expression” value on ERβ is listed as “Clear site-specific reduction”. Moreover, the “degradation of HA-GPER” value at HA-GPER was “specific degradation of HA-GPER was measured”. For the same compound, at HiBiT-ERα (100 µM, as early as 1 h), the “reduction in expression level of recombinant ER” value is recorded as 50%. Moreover, on HiBiT-ERα (setting [1]), the “change of HiBiT-ERα” value is on record as “dose-dependent decrease”.
